US4260623A, “Hexahydro-1-arylspiro(3H-oxazolo(3,4-A)pyridine-3,4'-piperidene) antidepressants, pharmaceutical compositions thereof and method of use thereof” (Warner-Lambert Company, priority 1979, dated 1981)

Key:
[1] = system: neuronal-uptake of norepinephrine; assay: inhibition of the neuronal-uptake of norepinephrine (tritium content of the hearts); assay type: in vivo; conditions: Mus musculus, 1 h; at 50 mg/kg oral, male mice, heart; norepinephrine-3H i.v. one hour after dosing; vs vehicle control; read-out: % Inhibition of Amine Uptake, Norepinephrine
Description: (§1) Int. Pharmacoldyn 225, 317-329 (1977)].
(§2) According to this procedure, male mice weighing approximately 25 grams are fasted overnight, then groups of five or more mice are dosed with the test compound or methocel vehicle at 50 mg/kg by oral route. After an interval of one hour, the mice are given an intravenous injection of a saline solution containing 0.5 μCi of norepinephrine-^3 H, 0.5 μCi of serotonin^14 C, and 1 mg/ml of ascorbic acid. The mice are then sacrificed about 15 minutes later, their hearts and spleens rinsed and weighed, and dissolved in a tissue solubilizer. The tritium content of the hearts and carbon-14 content of the spleen are determined by scintillation counting. The percent inhibition of uptake in comparison with the vehicle control group is then recorded.

[2] = system: neuronal-uptake of serotonin; assay: inhibition of the neuronal-uptake of serotonin (carbon-14 content of the spleen); assay type: in vivo; conditions: Mus musculus, 1 h, at 50 mg/kg oral, male mice, serotonin-14C i.v. one hour after dosing, vs vehicle control, read-out: % Inhibition of Amine Uptake, Serotonin
Description: as §1, §2

Compound	inhibition at 50 mg/kg [1]	inhibition at 50 mg/kg [2]
c1ccc(C2OC3(CCNCC3)N3CCCCC23)cc1 (stereo not shown) [Example 2, Hexahydro-1-phenylspiro[3H-oxazolo[3,4-a]pyridine-3,4'-piperidine]]	70%	83%
CN1CCC2(CC1)OC(c1ccccc1)C1CCCCN12 (stereo not shown) [Example 3, Hexahydro-1'-methyl-1-phenylspiro[3H-oxazolo[3,4-a]pyridine-3,4'-piperidine]]	73%	73%
Fc1cccc(C2OC3(CCN(Cc4ccccc4)CC3)N3CCCCC23)c1 (stereo not shown) [Example 4, hexahydro-1'-benzyl-1-(3-fluorophenyl)spiro[3H-oxazolo[3,4-a]pyridine-3,4'-piperidine]]	58%	79%
Fc1cccc(C2OC3(CCNCC3)N3CCCCC23)c1 (stereo not shown) [Example 5, hexahydro-1-(3-fluorophenyl)spiro[3H-oxazolo[3,4-a]pyridine-3,4'-piperidine]]	70%	89%
COc1ccccc1C1OC2(CCNCC2)N2CCCCC12 (stereo not shown) [Example 7, hexahydro-1-(2-methoxyphenyl)spiro[3H-oxazolo[3,4-a]pyridine-3,4'-piperidine]]	67%	71%
FC(F)(F)c1cccc(C2OC3(CCNCC3)N3CCCCC23)c1 (stereo not shown) [Example 9, hexahydro-1-[3-(trifluoromethyl)phenyl]spiro[3H-oxazolo[3,4-a]pyridine-3,4'piperidine]]	64%	86%
Fc1ccc(C2OC3(CCNCC3)N3CCCCC23)cc1 (stereo not shown) [Example 11, Hexahydro-1-(4-fluorophenyl)spiro[3H-oxazolo[3,4-a]pyridine-3,4'-piperidine]]	73%	89%
Clc1ccc(C2OC3(CCN(Cc4ccccc4)CC3)N3CCCCC23)cc1 (stereo not shown) [Example 12, hexahydro-1'-benzyl-1-(4-chlorophenyl)spiro[3H-oxazolo[3,4-a]pyridine-3,4'-piperidine]]	59%	84%
CN1CCC2(CC1)OC(c1ccc(Cl)cc1)C1CCCCN12 (stereo not shown) [Example 13, hexahydro-1'-methyl-1-(4-chlorophenyl)spiro[3H-oxazolo[3,4-a]pyridine-3,4'-piperidine]]	77%	91%
COc1ccc(C2OC3(CCNCC3)N3CCCCC23)cc1 (stereo not shown) [Example 14, Hexahydro-1-(4-methoxyphenyl)spiro[3H-oxazolo[3,4-a]pyridine-3,4'-piperidine]]	57%	89%
c1ccc(C2OC3(CCN(CC4CC4)CC3)N3CCCCC23)cc1 (stereo not shown) [Example 15, hexahydro-1'-(cyclopropylmethyl)-1-phenylspiro[3H-oxazolo[3,4-a]pyridine-3,4'-piperidine]]	62%	77%
